Data taken from patent US11771709B2, “ALK protein degradation agent and anti-tumor application thereof” (ShanghaiTech University, priority 2017, dated 2023).

What was measured:
[1] = system: SR (NPM-ALK) cells; experiment: Growth inhibition IC50 in ALCL SR cells (CCK8/WST, 72 hours); assay type: cell-based; conditions: SR cells, WST
Procedure: SR (NPM-ALK) and NCI-H2228 (EML4-ALK, V3) cells were purchased from ATCC. […] All Cells were cultured in RPMI1640 medium with 10% FBS and Penicillin-Streptomycin in 37° C. incubator with 5% CO2.
Cells were seeded at specific density in 96 well plates one day before treatment. […] Viable cells were measured via CCK8 reagent and IC50s were calculated via Prism Graphad. Experiments were repeated at least three times.

[2] = target: T1, ALK protein in H3122 (EML4-ALK) cells (Homo sapiens, UniProt Q9UM73); experiment: Western blot of ALK protein level (degradation, DC50), ALK phosphorylation and downstream signaling in H3122 cells; assay type: cell-based; conditions: ALK protein degradation in H3122 cells
T1 construct: EML4 (Echinoderm microtubule-associated protein-like 4, Q9HC35) fusion partner, variant 1; host or cells: NCI-H3122 lung adenocarcinoma cells; the other entry of the earlier key: EML4 (Q9HC35, Echinoderm microtubule-associated protein-like 4)

[3] = 72 h, Brigatinib-based PROTAD molecules (Table 3)

T1 sequence (Q9UM73 with tags, fused parts or gaps): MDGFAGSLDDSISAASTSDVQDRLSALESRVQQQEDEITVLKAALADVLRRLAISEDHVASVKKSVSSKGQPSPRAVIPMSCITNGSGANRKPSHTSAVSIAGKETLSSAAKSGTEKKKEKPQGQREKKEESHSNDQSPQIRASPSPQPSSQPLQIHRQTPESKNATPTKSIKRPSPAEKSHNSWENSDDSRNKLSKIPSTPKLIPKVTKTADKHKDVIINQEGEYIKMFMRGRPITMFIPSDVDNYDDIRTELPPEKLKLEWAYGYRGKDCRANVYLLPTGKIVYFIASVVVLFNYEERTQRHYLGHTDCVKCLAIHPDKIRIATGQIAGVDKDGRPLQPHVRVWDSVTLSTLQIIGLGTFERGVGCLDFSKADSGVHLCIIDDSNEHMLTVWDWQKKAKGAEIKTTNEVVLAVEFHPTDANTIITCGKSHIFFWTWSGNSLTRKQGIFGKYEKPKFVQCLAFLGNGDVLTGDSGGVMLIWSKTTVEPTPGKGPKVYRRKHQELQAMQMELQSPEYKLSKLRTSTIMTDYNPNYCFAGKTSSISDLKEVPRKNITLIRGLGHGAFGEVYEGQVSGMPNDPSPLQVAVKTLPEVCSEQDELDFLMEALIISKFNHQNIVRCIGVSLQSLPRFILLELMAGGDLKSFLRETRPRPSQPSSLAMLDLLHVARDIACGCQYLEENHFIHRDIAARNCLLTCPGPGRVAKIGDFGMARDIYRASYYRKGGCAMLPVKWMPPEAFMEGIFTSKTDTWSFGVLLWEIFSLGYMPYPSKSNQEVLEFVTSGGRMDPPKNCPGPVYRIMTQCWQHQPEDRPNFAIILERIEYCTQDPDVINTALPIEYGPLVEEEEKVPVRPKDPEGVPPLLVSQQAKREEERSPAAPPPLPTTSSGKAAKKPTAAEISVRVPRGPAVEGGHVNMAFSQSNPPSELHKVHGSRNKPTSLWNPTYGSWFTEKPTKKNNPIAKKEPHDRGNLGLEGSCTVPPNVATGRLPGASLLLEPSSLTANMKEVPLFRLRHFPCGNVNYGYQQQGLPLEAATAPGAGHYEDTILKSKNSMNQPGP

COc1cc(N2CCC(NC(=O)CCCCNc3cccc4c3C(=O)N(C3CCC(=O)NC3=O)C4=O)CC2)ccc1Nc1ncc(Cl)c(Nc2ccccc2P(C)(C)=O)n1 (stereo not shown) [SIAIS151119, N-(1-(4-((5-chloro-4-((2-(dimethylphosphoryl)phenyl)amino)pyrimidin-2-yl)amino)-3-methoxyphenyl)piperidin-4-yl)-5-((2-(2,6-dioxopiperidin-3-yl)-1,3-dioxoisoindolin-4-yl)amino)pentanamide]
IC50 [1, 3]: 1.6 ± 1 nM | DC50 [2]: 100 to 500 nM

COc1cc(N2CCN(C(=O)COCCOCC(=O)N[C@H](C(=O)N3C[C@H](O)C[C@H]3C(=O)NCc3ccc(-c4scnc4C)cc3)C(C)(C)C)CC2)ccc1Nc1ncc(Cl)c(Nc2ccccc2P(C)(C)=O)n1 [SIAIS1197087, (2S,4R)-1-((S)-2-(2-(2-(2-(4-(4-((5-chloro-4-((2-(dimethylphosphoryl)phenyl)amino)pyrimidin-2-yl)amino)-3-methoxyphenyl)piperazin-1-yl)-2-oxoethoxy)ethoxy)acetamido)-3,3-dimethylbutanoyl)-4-hydroxy-N-(4-(4-methylthiazol-5-yl)benzyl)pyrrolidine-2-carboxamide]
IC50 [1, 3]: 10.6 ± 2.4 nM | DC50 [2]: 50 to 500 nM

COc1cc(N2CCC(NC(=O)CCOCCOCCOCCNc3cccc4c3C(=O)N(C3CCC(=O)NC3=O)C4=O)CC2)ccc1Nc1ncc(Cl)c(Nc2ccccc2P(C)(C)=O)n1 (stereo not shown) [SIAIS151115, N-(1-(4-((5-chloro-4-((2-(dimethylphosphoryl)phenyl)amino)pyrimidin-2-yl)amino)-3-methoxyphenyl)piperidin-4-yl)-3-(2-(2-(2-((2-(2,6-dioxopiperidin-3-yl)-1,3-dioxoisoindolin-4-yl)amino)ethoxy)ethoxy)ethoxy)propenamide]
IC50 [1, 3]: 8 ± 3.2 nM | DC50 [2]: 100 to 500 nM

COc1cc(N2CCC(NC(=O)CCNc3cccc4c3C(=O)N(C3CCC(=O)NC3=O)C4=O)CC2)ccc1Nc1ncc(Cl)c(Nc2ccccc2P(C)(C)=O)n1 (stereo not shown) [SIAIS151121, N-(1-(4-((5-chloro-4-((2-(dimethylphosphoryl)phenyl)amino)pyrimidin-2-yl)amino)-3-methoxyphenyl)piperidin-4-yl)-3-((2-(2,6-dioxopiperidin-3-yl)-1,3-dioxoisoindolin-4-yl)amino)propenamide]
IC50 [1, 3]: 20.4 ± 8.5 nM | DC50 [2]: 100 to 500 nM

COc1cc(N2CCN(C(=O)CCOCCOCCOCCNc3cccc4c3C(=O)N(C3CCC(=O)NC3=O)C4=O)CC2)ccc1Nc1ncc(C)c(Nc2ccccc2P(C)(C)=O)n1 (stereo not shown) [SIAIS1197069, 4-((2-(2-(2-(3-(4-(4-((4-((2-(dimethylphosphoryl)phenyl)amino)-5-methylpyrimidin-2-yl)amino)-3-methoxyphenyl)piperazin-1-yl)-3-oxopropoxy)ethoxy)ethoxy)ethyl)amino)-2-(2,6-dioxopiperidin-3-yl)isoindoline-1,3-dione]
IC50 [1, 3]: 22.3 ± 18.2 nM | DC50 [2]: 100 to 500 nM

COc1cc(N2CCC(NC(=O)CCC(=O)NCCNc3cccc4c3C(=O)N(C3CCC(=O)NC3=O)C4=O)CC2)ccc1Nc1ncc(Cl)c(Nc2ccccc2P(C)(C)=O)n1 (stereo not shown) [SIAIS164157, N1-(1-(4-((5-chloro-4-((2-(dimethylphosphoryl)phenyl)amino)pyrimidin-2-yl)amino)-3-methoxyphenyl)piperidin-4-yl)-N4-(2-((2-(2,6-dioxopiperidin-3-yl)-1,3-dioxoisoindolin-4-yl)amino)ethyl)succinamide]
IC50 [1, 3]: 15.7 ± 15 nM | DC50 [2]: 1 to 50 nM

COc1cc(N2CCN(C(=O)CCCNc3cccc4c3C(=O)N(C3CCC(=O)NC3=O)C4=O)CC2)ccc1Nc1ncc(Cl)c(Nc2ccccc2P(C)(C)=O)n1 (stereo not shown) [SIAIS1197059, 4-((4-(4-(4-((5-chloro-4-((2-(dimethylphosphoryl)phenyl)amino)pyrimidin-2-yl)amino)-3-methoxyphenyl)piperazin-1-yl)-4-oxobutyl)amino)-2-(2,6-dioxopiperidin-3-yl)isoindoline-1,3-dione]
IC50 [1, 3]: 10.7 ± 6.2 nM | DC50 [2]: 1 to 50 nM

COc1cc(N2CCC(NC(=O)CNc3cccc4c3C(=O)N(C3CCC(=O)NC3=O)C4=O)CC2)ccc1Nc1ncc(Cl)c(Nc2ccccc2P(C)(C)=O)n1 (stereo not shown) [SIAIS151120, N-(1-(4-((5-chloro-4-((2-(dimethylphosphoryl)phenyl)amino)pyrimidin-2-yl)amino)-3-methoxyphenyl)piperidin-4-yl)-2-((2-(2,6-dioxopiperidin-3-yl)-1,3-dioxoisoindolin-4-yl)amino)acetamide]
IC50 [1, 3]: 11.4 ± 7.8 nM | DC50 [2]: 20 to 100 nM

COc1cc(N2CCN(C(=O)CCOCCOCCC(=O)N[C@H](C(=O)N3C[C@H](O)C[C@H]3C(=O)NCc3ccc(-c4scnc4C)cc3)C(C)(C)C)CC2)ccc1Nc1ncc(Cl)c(Nc2ccccc2P(C)(C)=O)n1 [SIAIS197079, (2S,4R)-1-((S)-2-(3-(2-(3-(4-(4-((5-chloro-4-((2-(dimethylphosphoryl)phenyl)amino)pyrimidin-2-yl)amino)-3-methoxyphenyl)piperazin-1-yl)-3-oxopropoxy)ethoxy)propanamido)-3,3-dimethylbutanoyl)-4-hydroxy-N-(4-(4-methylthiazol-5-yl)benzyl)pyrrolidine-2-carboxamide]
IC50 [1, 3]: 15.9 ± 8.5 nM | DC50 [2]: 50 to 500 nM

COc1cc(N2CCN(C(=O)CCOCCOCCOCCOCCOCCNc3cccc4c3C(=O)N(C3CCC(=O)NC3=O)C4=O)CC2)ccc1Nc1ncc(Cl)c(Nc2ccccc2P(C)(C)=O)n1 (stereo not shown) [SIAIS1197073, 4-((18-(4-(4-((5-chloro-4-((2-(dimethylphosphoryl)phenyl)amino)pyrimidin-2-yl)amino)-3-methoxyphenyl)piperazin-1-yl)-18-oxo-3,6,9,12,15-pentaoxaoctadecyl)amino)-2-(2,6-dioxopiperidin-3-yl)isoindoline-1,3-dione]
IC50 [1, 3]: 34.2 ± 23.9 nM | DC50 [2]: 100 to 500 nM

COc1cc(N2CCN(C(=O)CCCCC(=O)N[C@H](C(=O)N3C[C@H](O)C[C@H]3C(=O)NCc3ccc(-c4scnc4C)cc3)C(C)(C)C)CC2)ccc1Nc1ncc(Cl)c(Nc2ccccc2P(C)(C)=O)n1 [SIAIS1197149, (2S,4R)-1-((S)-2-(6-(4-(4-((5-chloro-4-((2-(dimethylphosphoryl)phenyl)amino)pyrimidin-2-yl)amino)-3-methoxyphenyl)piperazin-1-yl)-6-oxohexanamido)-3,3-dimethylbutanoyl)-4-hydroxy-N-(4-(4-methylthiazol-5-yl)benzyl)pyrrolidine-2-carboxamide]
IC50 [1, 3]: 8.2 ± 3.9 nM | DC50 [2]: 20 to 100 nM

COc1cc(N2CCN(C(=O)CCOCCOCCOCCOCCC(=O)N[C@H](C(=O)N3C[C@H](O)C[C@H]3C(=O)NCc3ccc(-c4scnc4C)cc3)C(C)(C)C)CC2)ccc1Nc1ncc(Cl)c(Nc2ccccc2P(C)(C)=O)n1 [SIAIS1197083, (2S,4R)-1-((S)-2-(tert-butyl)-19-(4-(4-((5-chloro-4-((2-(dimethylphosphoryl)phenyl)amino)pyrimidin-2-yl)amino)-3-methoxyphenyl)piperazin-1-yl)-4,19-dioxo-7,10,13,16-tetraoxa-3-azanonadecanoyl)-4-hydroxy-N-(4-(4-methylthiazol-5-yl)benzyl)pyrrolidine-2-carboxamide]
IC50 [1, 3]: 49.9 ± 30.8 nM | DC50 [2]: 50 to 500 nM

COc1cc(N2CCN(C(=O)CCOCCOCCOCCC(=O)N[C@H](C(=O)N3C[C@H](O)C[C@H]3C(=O)NCc3ccc(-c4scnc4C)cc3)C(C)(C)C)CC2)ccc1Nc1ncc(Cl)c(Nc2ccccc2P(C)(C)=O)n1 [SIAIS1197081, (2S,4R)-1-((S)-2-(tert-butyl)-16-(4-(4-((5-chloro-4-((2-(dimethylphosphoryl)phenyl)amino)pyrimidin-2-yl)amino)-3-methoxyphenyl)piperazin-1-yl)-4,16-dioxo-7,10,13-trioxa-3-azahexadecanoyl)-4-hydroxy-N-(4-(4-methylthiazol-5-yl)benzyl)pyrrolidine-2-carboxamide]
IC50 [1, 3]: 32.5 ± 19.8 nM | DC50 [2]: 50 to 500 nM

COc1cc(N2CCN(C(=O)CCOCCOCCOCCOCCOCCC(=O)N[C@H](C(=O)N3C[C@H](O)C[C@H]3C(=O)NCc3ccc(-c4scnc4C)cc3)C(C)(C)C)CC2)ccc1Nc1ncc(Cl)c(Nc2ccccc2P(C)(C)=O)n1 [SIAIS1197085, (2S,4R)-1-((S)-2-(tert-butyl)-22-(4-(4-((5-chloro-4-((2-(dimethylphosphoryl)phenyl)amino)pyrimidin-2-yl)amino)-3-methoxyphenyl)piperazin-1-yl)-4,22-dioxo-7,10,13,16,19-pentaoxa-3-azadocosanoyl)-4-hydroxy-N-(4-(4-methylthiazol-5-yl)benzyl)pyrrolidine-2-carboxamide]
IC50 [1, 3]: 62.5 ± 39.2 nM | DC50 [2]: 20 to 100 nM

COc1cc(N2CCC(NC(=O)CCOCCNc3cccc4c3C(=O)N(C3CCC(=O)NC3=O)C4=O)CC2)ccc1Nc1ncc(Cl)c(Nc2ccccc2P(C)(C)=O)n1 (stereo not shown) [SIAIS151113]
IC50 [1, 3]: 7.5 ± 5.2 nM | DC50 [2]: 100 to 500 nM

COc1cc(N2CCN(C(=O)CCCCCNc3cccc4c3C(=O)N(C3CCC(=O)NC3=O)C4=O)CC2)ccc1Nc1ncc(Cl)c(Nc2ccccc2P(C)(C)=O)n1 (stereo not shown) [SIAIS1197063, 4-((6-(4-(4-((5-chloro-4-((2-(dimethylphosphoryl)phenyl)amino)pyrimidin-2-yl)amino)-3-methoxyphenyl)piperazin-1-yl)-6-oxohexyl)amino)-2-(2,6-dioxopiperidin-3-yl)isoindoline-1,3-dione]
IC50 [1, 3]: 14.1 ± 7.3 nM | DC50 [2]: 50 to 500 nM

CCc1cc2c(cc1N1CCN(C(=O)CCOCCOCCOCCOCCNc3cccc4c3C(=O)N(C3CCC(=O)NC3=O)C4=O)CC1)C(C)(C)c1[nH]c3cc(C#N)ccc3c1C2=O (stereo not shown) [SIAIS164014, 8-(4-(1-((2-(2,6-dioxopiperidin-3-yl)-1,3-dioxoisoindolin-4-yl)amino)-3,6,9,12-tetraoxapentadecan-15-oyl)piperazin-1-yl)-9-ethyl-6,6-dimethyl-11-oxo-6,11-dihydro-5H-benzo[b]carbazole-3-carbonitrile]
IC50 ([1]; Alectinib based ALK PROTAD compounds (Table 4)): 81 nM | DC50 [2]: 100 to 500 nM
